Assay results from ChEMBL document CHEMBL1201862, “PubChem BioAssay data set” (2004).
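Interpolation was linear, between the two tested concentrations surrounding the appropriate level; five concentrations were tested over 48 hours in 96-well plates. Abbreviation: GI50, concentration required for 50% inhibition of growth.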 Calls of active or inactive are those of the source. Rule as the data show it: active = GI50 up to about 1.1 µM and inactive = higher.

How the values were obtained:
Assay in all cases: growth of human tumour cells (NCI), 48 h
A549 = system: A549
CAKI-1 = system: CAKI-1
DLD-1 = system: DLD-1
HCC 2998 = system: HCC 2998
HCT-116 = system: HCT-116
HCT-15 = system: HCT-15
HOP-18 = system: HOP-18
LOX IMVI = system: LOX IMVI
MOLT-4 = system: MOLT-4
NCI-H226 = system: NCI-H226
RPMI-8226 = system: RPMI-8226
SF-295 = system: SF-295
SK-MEL-28 = system: SK-MEL-28
SNB-78 = system: SNB-78
U-251 = system: U-251
UACC-257 = system: UACC-257
XF498 = system: XF498
COLO 205 = system: COLO 205
K562 = system: K562
M14 = system: M14

SMILES	GI50 (A549)	GI50 (CAKI-1)	GI50 (DLD-1)	GI50 (HCC 2998)	GI50 (HCT-116)	GI50 (HCT-15) [µM]	GI50 (HOP-18)	GI50 (LOX IMVI)	GI50 (MOLT-4)	GI50 (NCI-H226)	GI50 (RPMI-8226)	GI50 (SF-295)	GI50 (SK-MEL-28)	GI50 (SNB-78)	GI50 (U-251)	GI50 (UACC-257)	GI50 (XF498)	GI50 (COLO 205)	GI50 (K562)	GI50 (M14)
COc1cc(/C=C(\C#N)C(N)=O)cc(Br)c1O	> 100 µM (inactive)	> 100 µM (inactive)	92 µM (inactive)	> 100 µM (inactive)	> 100 µM (inactive)	> 100	> 100 µM (inactive)	29.7 µM (inactive)	> 100 µM (inactive)	> 100 µM (inactive)	70 µM (inactive)	> 100 µM (inactive)	> 100 µM (inactive)	> 100 µM (inactive)	> 100 µM (inactive)	> 100 µM (inactive)	23.2 µM (inactive)	–	–	–
CC1SC(c2ccccc2)N(Nc2c3ccccc3nc3ccccc23)C1=O (stereo not given)	58.5 µM (inactive)	46.9 µM (inactive)	59.2 µM (inactive)	> 100 µM (inactive)	75.3 µM (inactive)	51.8	–	89.1 µM (inactive)	28.9 µM (inactive)	55.3 µM (inactive)	58.7 µM (inactive)	69 µM (inactive)	> 100 µM (inactive)	> 100 µM (inactive)	> 100 µM (inactive)	83.6 µM (inactive)	> 100 µM (inactive)	> 100 µM (inactive)	40.6 µM (inactive)	> 100 µM (inactive)
CCCCCCCCCCCCCCCCCC(=O)OCC1OC(OC)C(NC(=O)N(CCCl)N=O)C(O)C1O (stereo not given)	18.1 µM (inactive)	> 100 µM (inactive)	28.1 µM (inactive)	29 µM (inactive)	–	36.1	32.6 µM (inactive)	13.6 µM (inactive)	4.41 µM (inactive)	24.9 µM (inactive)	20.3 µM (inactive)	14.9 µM (inactive)	21.6 µM (inactive)	40.4 µM (inactive)	> 10 µM (inactive)	16.8 µM (inactive)	20.7 µM (inactive)	30.3 µM (inactive)	24.6 µM (inactive)	27.8 µM (inactive)
